# Laboratory results: patent US8927588B2, “Imidazole carbonyl compound” (Daiichi Sankyo Company, Limited, priority 2007, dated 2015)
# Like-named read-outs stand apart in the source and are kept apart here.
# Columns and labels:
# [1] = target: ParE of Haemophilus influenzae (Haemophilus influenzae, UniProt P43703); assay: ATP hydrolysis inhibition assay (pyruvate kinase/lactate dehydrogenase coupled), ParE of Haemophilus influenzae; assay type: biochemical
# Procedure: The ATP hydrolysis activity of GyrB and ParE was determined by correlating it with ADP production and NADH oxidation mediated by pyruvate kinase/lactate dehydrogenase. This method has been previously reported (Tamura, J. K. and Gellert, M. 1990, J. Biol. Chem. 265:21342-21349).
# The ATP hydrolysis assay was carried out in a buffer solution containing final concentrations of 100 mM Tris-HCl (pH 7.5), 150 mM KCl, 1.5 mM MgCl2, 0.4 mM nicotinamide adenine dinucleotide (NADH), 2.5 mM phosphoenolpyruvate, 1 mM DTT, 15 U/ml pyruvate kinase, 10.5 U/ml lactate dehydrogenase and 1 mU/ml enzyme (GyrB or ParE of Streptococcus pneumoniae or Haemophilus influenzae) (provided that the concentration of KCl was 25 mM and the concentration of MgCl2 was 10 mM in the case of ParE of Haemophilus influenzae). A solution of the test compound serially four-fold diluted in DMSO:MeOH (7:3) was added at a final concentration of 5% (v/v). […] ATP was added at a final concentration of 1 mM; after mixing, the absorbance at 340 nm (amount of NADH) was determined (provided that the final ATP concentration was 0.3 mM in the case of ParE of Haemophilus influenzae). The reaction solution was incubated at 30° C. for two hours, and then the absorbance at 340 nm was determined. The ATP hydrolysis inhibition rate (%) was calculated from the difference in absorbance before and after the incubation (amount of NADH oxidized). […]
# [2] = Solubility in water (JP1 fluid / JP2 fluid); assay type: physicochemical; conditions: thermodynamic from solid, room temperature
# Haemophilus influenzae = assay: Sensitivity of bacteria, broth microdilution method (MIC); assay type: cell-based; conditions: medium obtained by mixing hemophilus test medium with human serum at a ratio of 1:1
# Procedure: The antibacterial activity of the compounds of the present invention was tested by sensitivity tests by the broth microdilution method. The assay was carried out according to the latest CLSI guidelines for managing the procedures of sensitivity tests: “M7-A7 Methods for Dilution Antimicrobial Susceptibility Tests for Bacteria That Grow Aerobically; Approved Standard—Seventh Edition (2006)”. Test strains were grown on appropriate agar plates overnight. A broth containing the test compound serially two-fold diluted was dispensed at 100 μL to each well of a 96-well microplate. As a growth control, a well with a broth not containing the test compound was also prepared. Colonies grown on the plates were suspended in saline, adjusted to 0.5 McFarland (OD625=0.08 to 0.10) using a colorimeter, and then diluted ten-fold with saline. The bacterial suspension was inoculated at 4 μL into each well of the microplate using a bacterial suspension inoculation apparatus. The inoculated microplate was incubated at 35° C. overnight (about 20 hours). The growth condition was observed by the naked eye, and the minimum concentration to inhibit bacterial proliferation was defined as a minimum inhibitory concentration (MIC).
# HeLa cell proliferation = assay: Cytotoxicity test, HeLa cell proliferation (MTS-PMS); assay type: cell-based; conditions: human, HeLa cells, 48 hours incubation, read-out: IC50 (cytotoxicity, proliferation inhibition)
# Procedure: 50 μL of a HeLa cell solution containing 80000 cells/mL was inoculated into each well of a 96-well microplate, and the mixture was incubated at 37° C. in a 5% carbon dioxide incubator for 24 hours. Thereafter, a medium containing the test compound serially four-fold diluted was added at 50 μL to each well, and the mixture was incubated at 37° C. in a 5% carbon dioxide incubator for 48 hours. As a control with an inhibition rate of 0%, a well not containing the test compound was also prepared. Following washing with phosphate buffered saline, a MTS [3-(4,5-dimethylthiazol-2-yl)-5-(3-carboxymethoxyphenyl)-2-(4-sulphophenyl)-2H-tetrazolium, inner salt]-PMS (phenazine methosulfate) coloring reagent solution was added, and the mixture was allowed to stand at 37° C. in a 5% carbon dioxide incubator for 1.5 hours. Thereafter, the absorbance at 490 nm was determined. The 50% inhibition concentration (IC50) was calculated from the proliferation inhibition rate (%) in the presence of four different concentrations of the test compound.
# ParE of Haemophilus influenzae, sequence (P43703 whole entry): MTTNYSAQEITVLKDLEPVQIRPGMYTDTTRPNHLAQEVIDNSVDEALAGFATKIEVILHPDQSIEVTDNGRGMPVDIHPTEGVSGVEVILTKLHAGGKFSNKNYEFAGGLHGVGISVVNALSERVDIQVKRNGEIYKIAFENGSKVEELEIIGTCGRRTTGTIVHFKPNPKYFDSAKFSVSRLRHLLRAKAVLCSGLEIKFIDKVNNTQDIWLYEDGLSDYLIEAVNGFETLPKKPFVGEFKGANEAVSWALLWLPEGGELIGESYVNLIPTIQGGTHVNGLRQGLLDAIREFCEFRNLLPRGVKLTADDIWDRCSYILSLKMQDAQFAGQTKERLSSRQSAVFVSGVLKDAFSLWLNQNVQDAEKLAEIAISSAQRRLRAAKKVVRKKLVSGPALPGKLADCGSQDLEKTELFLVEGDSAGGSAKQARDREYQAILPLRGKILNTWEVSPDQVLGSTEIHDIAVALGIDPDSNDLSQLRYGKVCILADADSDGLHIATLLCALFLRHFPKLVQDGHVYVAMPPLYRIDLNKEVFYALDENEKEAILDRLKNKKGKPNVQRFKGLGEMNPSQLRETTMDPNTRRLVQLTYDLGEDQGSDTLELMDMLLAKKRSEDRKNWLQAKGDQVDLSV
structure (smiles),measurement,setting,value
"CO[C@H]1CN(c2nc3cccc(C(=O)O)c3s2)CC[C@H]1NC(=O)c1nc(Cl)c(C)[nH]1 (racemic) [Example 8, cis(±)-2-(4-{[(4-Chloro-5-methyl-1H-imidazol-2-yl)carbonyl]amino}-3-methoxypiperidin-1-yl)-1,3-benzothiazole-7-carboxylic acid]",IC50,[1],131 nM
same,solubility,"[2]; pH 1.2, simulated gastric fluid, 1st fluid for the disintegration test of the Japanese Pharmacopoeia, read-out: solubility in JP1 fluid",100 µg/mL
same,solubility,"[2]; pH 6.8, aqueous buffer, 2nd fluid for the disintegration test of the Japanese Pharmacopoeia, read-out: solubility in JP2 fluid",720 µg/mL
same,MIC,Haemophilus influenzae,4 µg/mL
same,IC50 at 48 h,HeLa cell proliferation,> 200 µg/mL
